Results: patent publication US20250332112A1, “IONIZABLE CATIONIC LIPIDS FOR LIPID NANOPARTICLES” (GENEVANT SCIENCES GMBH, priority 2022, published 2025)

What was measured:
[1] = cited from earlier work
[2] = Particle characteristics of LNPs containing luciferase mRNA and novel ionizable lipids; assay type: physicochemical; conditions: Table 6; luciferase mRNA LNP 1.6:54.6:32.8:10.9
How it was run: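 LNPs made from PEG-lipid, ionizable lipid, cholesterol and phospholipid in ethanol, T-mixed with luciferase mRNA in 100 mM acetate pH 5. Products were dialysed, concentrated, and dialysed into 5 mM Tris, 10% sucrose, pH 8, then 0.2 μm filtered. mRNA was measured by RiboGreen, and size and polydispersity by dynamic light scattering on a Zetasizer.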

[3] = system: luciferase activity in the liver; assay: Luciferase activity in liver after intravenous luciferase mRNA LNP; assay type: in vivo; conditions: Table 13; 0.5 mg/kg IV, 6 h post-IV administration, BALB/c mice (n = 4)
[4] = system: human OTC expression in the liver; assay: Dose response of human OTC mRNA LNP, OTC expression in liver (ELISA); assay type: in vivo; conditions: 24 h, male C57BL/6 mice (n = 4)
Method: (§1) LNP formulations encapsulating ornithine transcarbamylase mRNA were injected intravenously at the specified dose levels to male C57BL/6 mice (6-8 weeks old).
Liver homogenates were prepared with PBS, Halt protease inhibitor cocktail and FastPrep homogenization, standardized to 2 mg/mL protein with a BCA Protein Assay, and then analyzed by ELISA. Briefly, samples were diluted with PBS and plated on Nunc Maxisorp plates. A standard curve using human […] protein was prepared from the naïve animal controls (vehicle). After 2 h incubation the plates were washed, and the primary antibody was added. After 1 h incubation, the secondary antibody was added and incubated for another hour. After washing, TMB Substrate was added for color development and the reaction was stopped with 2 N sulfuric acid. The plate was read at 450/570 OD.
At 24 h post-dose, the novel lipid formulations reported dose-dependent increases in human OTC expression in the liver (Table 15).

[5] = Parent ionizable lipid remaining in liver at 6 h after luciferase mRNA LNP (LC-MS); assay type: in vivo; conditions: 6 h after IV 0.5 mg/kg Luciferase mRNA LNP
[6] = Lipid clearance from liver over time after human OTC mRNA LNP (LC-MS); assay type: in vivo; conditions: IV 0.5 mg/kg human OTC mRNA LNP, male C57BL/6 mice (n = 4)
Method: as §1
(§2) Liver tissues were treated with PBS and homogenized with a FastPrep machine, 3 cycles of 5 m/s×15 s. Homogenates from the PBS-treated control animals was pooled and used for standard curve preparation. Samples were extracted into a deep well plate with 250 μL of an internal suitability standard. Plates were centrifuged for 15 min at 4° C. and 2000 rpm. Analysis was performed using an Agilent 6520 QTOF coupled to an Agilent 1290 UHPLC, using reverse-phase LC separation. Quantitation of the ionizable lipid was by MS/MS against a calibration curve spiked into appropriately matched blank matrix. Calibration used a similar class of synthetic lipid as internal standard.
At various timepoints post-dose, lipid levels were assessed in the liver. Some novel ionizable lipids reported more rapid clearance rates compared to the benchmark (Table 19).

[7] = Particle characteristics of LNPs containing EGFP mRNA and novel ionizable lipids; assay type: physicochemical; conditions: EGFP mRNA LNP 1.6:54.6:32.8:10.9
How it was run: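 LNPs of PEG-lipid, ionizable lipid, cholesterol and phospholipid in ethanol were mixed 1:1 with mRNA in 100 mM acetate pH 5 via T-junction, diluted in PBS, dialysed, concentrated to ~0.6 mg/mL and exchanged into 5 mM Tris, 10% sucrose, pH 8. Size and polydispersity by Zetasizer; nucleic acid by RiboGreen.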

[8] = Parent ionizable lipid remaining in liver at 24 h after EGFP mRNA LNP (LC-MS); assay type: in vivo; conditions: 24 h after IV 0.5 mg/kg EGFP mRNA LNP, female BALB/c mice (n = 4)
[9] = system: EGFP expression in the liver; assay: Dose response of EGFP mRNA LNP, EGFP expression in liver; assay type: in vivo; conditions: 24 h, female BALB/c mice (n = 4)
Method: At 24 h post-dose, the novel lipid formulations reported dose-dependent increases in EGFP expression in the liver (Table 32).

[10] = Lipid clearance from liver over time after EGFP mRNA LNP (LC-MS); assay type: in vivo; conditions: IV 0.5 mg/kg EGFP mRNA LNP, female BALB/c mice (n = 4)
Method: as §2
At various timepoints post-dose, lipid levels were assessed in the liver. Some novel ionizable lipids reported more rapid clearance rates compared to the benchmark (Table 33).

[11] = system: EGFP expression in the liver; assay: EGFP expression in liver after intravenous EGFP mRNA LNP (ELISA); conditions: 0.5 mg/kg IV, 24 h post-IV administration, BALB/c mice (n = 4)
[12] = Table 18, female BALB/c mice (n = 4)

SMILES: CCCCCCCCC(CCCCCC)C(=O)OCCCCCCN(CCCCO)CCCCCCOC(=O)C(CCCCCC)CCCCCCCC (stereo not drawn) [ALC-0315]
- Rate of metabolism (in words) ([1]; ref: Comirnaty Assessment Report, European Medicines Agency): metabolize at a similar rate to MC3

SMILES: CCCCCCCCCCON(C(=O)CCCN(C)C)C(CCCCCCCCCC)CCCCCCC(=O)OCCC(CCCCC)CCCCC (stereo not drawn) [Compound 43, 3-pentyloctyl 8-[N-(decyloxy)-4-(dimethylamino)butanamido]octadecanoate]
- Final Product % EE [2]: 99%
- Final Product PDI [2]: 0.05
- Final Product Z-avg [2]: 73 nm
- Luc Activity [3]: 1.04E+08 pg/g liver
- Human OTC expression ([4]; 0.3 mg/kg IV): 1247 ng hOTC/mg protein in liver
- Human OTC expression ([4]; 1 mg/kg IV): 5713 ng hOTC/mg protein in liver
- Human OTC expression ([4]; 3 mg/kg IV): 12887 ng hOTC/mg protein in liver
- Parent ionizable lipid remaining in liver, Average ([5]; Table 17, female mice (n = 4)): 25.97 nmol/g liver
- Parent ionizable lipid remaining in liver, Average [5, 12]: 23.83 nmol/g liver
- Parent ionizable lipid remaining in liver, Average ([6]; 0.25 h post-dose): 22.97 nmol/g liver
- Parent ionizable lipid remaining in liver, Average ([6]; 1 h post-dose): 38.91 nmol/g liver
- Parent ionizable lipid remaining in liver, Average ([6]; 3 h post-dose): 28.99 nmol/g liver
- Parent ionizable lipid remaining in liver, Average ([6]; 6 h post-dose): 24.19 nmol/g liver
- Parent ionizable lipid remaining in liver, Average ([6]; 24 h post-dose): 13.50 nmol/g liver
- Parent ionizable lipid remaining in liver, Average ([6]; 168 h post-dose): 0.19 nmol/g liver

SMILES: CCCCCCCCCCN(C(=O)CCCN(C)C)C(CCCCCCCCC)CCCCCCC(F)(F)C(=O)OCCC(CCCCCC)CCCCCC (stereo not drawn) [Compound 16, 3-hexylnonyl 9-(N-decyl-4-(dimethylamino)butanamido)-2,2-difluorooctadecanoate]
- Final Product % EE [2]: 95%
- Final Product PDI [2]: 0.10
- Final Product Z-avg [2]: 76 nm
- Luc Activity [3]: 4.39E+07 pg/g liver
- Human OTC expression ([4]; 0.3 mg/kg IV): 1155 ng hOTC/mg protein in liver
- Human OTC expression ([4]; 1 mg/kg IV): 4127 ng hOTC/mg protein in liver
- Human OTC expression ([4]; 3 mg/kg IV): 10316 ng hOTC/mg protein in liver
- Parent ionizable lipid remaining in liver, Average ([5]; Table 17, female mice (n = 4)): 6.32 nmol/g liver
- Parent ionizable lipid remaining in liver, Average [5, 12]: 17.06 nmol/g liver
- Parent ionizable lipid remaining in liver, Average ([6]; 0.25 h post-dose): 11.11 nmol/g liver
- Parent ionizable lipid remaining in liver, Average ([6]; 1 h post-dose): 15.47 nmol/g liver
- Parent ionizable lipid remaining in liver, Average ([6]; 3 h post-dose): 10.91 nmol/g liver
- Parent ionizable lipid remaining in liver, Average ([6]; 6 h post-dose): 4.71 nmol/g liver
- Parent ionizable lipid remaining in liver, Average ([6]; 24 h post-dose): 1.33 nmol/g liver
- Parent ionizable lipid remaining in liver, Average ([6]; 168 h post-dose): 0.04 nmol/g liver

SMILES: CCCCC/C=C\C/C=C\CCCCCCCCC(CCCCCCCC/C=C\C/C=C\CCCCC)OC(=O)CCCN(C)C [MC3]
- Clearance from target tissues (in words) ([1]; in vivo): take several weeks to clear from target tissues

SMILES: CCCCCCCCCCN(C(=O)CCCN(C)C)C(CCCCCCCCC)CCCCC(F)(F)C(=O)OC(CCCCCCC)CCCCCCC (stereo not drawn) [Compound 101, Pentadecan-8-yl 7-(N-decyl-4-(dimethylamino)butanamido)-2,2-difluorohexadecanoate]
- Final Product % EE ([7]; Table 21): 100%
- Final Product PDI ([7]; Table 21): 0.10
- Final Product Z-avg ([7]; Table 21): 70 nm
- Parent ionizable lipid remaining in liver, Average ([8]; Table 29): 16.30 nmol/g liver
- EGFP expression ([9]; 0.3 mg/kg IV): 2.65e+07 pg EGFP/g liver
- EGFP expression ([9]; 1 mg/kg IV): 1.04e+08 pg EGFP/g liver
- EGFP expression ([9]; 3 mg/kg IV): 3.9e+08 pg EGFP/g liver
- Parent ionizable lipid remaining in liver, Average ([10]; 0.25 h post-dose): 23.8 nmol/g liver
- Parent ionizable lipid remaining in liver, Average ([10]; 1 h post-dose): 42.4 nmol/g liver
- Parent ionizable lipid remaining in liver, Average ([10]; 3 h post-dose): 26.9 nmol/g liver
- Parent ionizable lipid remaining in liver, Average ([10]; 6 h post-dose): 30.6 nmol/g liver
- Parent ionizable lipid remaining in liver, Average ([10]; 24 h post-dose): 12.6 nmol/g liver
- Parent ionizable lipid remaining in liver, Average ([10]; 168 h post-dose): 0.6 nmol/g liver
- EGFP ([11]; Table 25): 2.25E+05 pg/g liver

SMILES: CCCCCCCCCCN(C(=O)CCCN(C)C)C(CCCCCCCCC)CCCCCCC(F)C(=O)OC(CCCCCCCC)CCCCCCCC (stereo not drawn) [Compound 115, Heptadecan-9-yl 9-(N-decyl-4-(dimethylamino)butanamido)-2-fluorooctadecanoate]
- Final Product % EE ([7]; Table 22): 98%
- Final Product PDI ([7]; Table 22): 0.04
- Final Product Z-avg ([7]; Table 22): 72 nm
- Parent ionizable lipid remaining in liver, Average ([8]; Table 30): 27.15 nmol/g liver
- EGFP expression ([9]; 0.3 mg/kg IV): 2.98e+07 pg EGFP/g liver
- EGFP expression ([9]; 1 mg/kg IV): 1.31e+08 pg EGFP/g liver
- EGFP expression ([9]; 3 mg/kg IV): 3.41e+08 pg EGFP/g liver
- Parent ionizable lipid remaining in liver, Average ([10]; 0.25 h post-dose): 36.7 nmol/g liver
- Parent ionizable lipid remaining in liver, Average ([10]; 1 h post-dose): 51.3 nmol/g liver
- Parent ionizable lipid remaining in liver, Average ([10]; 3 h post-dose): 44.8 nmol/g liver
- Parent ionizable lipid remaining in liver, Average ([10]; 6 h post-dose): 45.3 nmol/g liver
- Parent ionizable lipid remaining in liver, Average ([10]; 24 h post-dose): 0.0 nmol/g liver
- Parent ionizable lipid remaining in liver, Average ([10]; 168 h post-dose): 1.3 nmol/g liver
- EGFP ([11]; Table 26): 6.06E+07 pg/g liver
